For 59 molecules, RP-LC retention time results are on record in the METLIN SMRT retention time set (Domingo-Almenara et al. 2019).

This data set is described as follows: gradient 5% acetonitrile 3 min, to 50% in 2 min, to 85% in 15 min, held 3 min, 100 µL/min. Particulars: column: Zorbax Extend-C18 2.1 x 50 mm; eluents: water / acetonitrile, 0.1% formic acid. In short, it runs like this:
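Over 3 months, pure standards in mixtures of ~100 molecules were run by HPLC coupled to a quadrupole time-of-flight mass spectrometer in positive and negative ionization mode. The column was a Zorbax Extend-C18 (2.1 × 50 mm, 1.8 μm) at 100 μL/min, eluted with water and acetonitrile each holding 0.1% formic acid, with 40 μL dead and 900 μL dwell volumes. Retention time was determined from adduct peaks chosen by software and checked manually.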
In the case of `Cc1noc2ncnc(NCCN(C)Cc3ccccc3)c12`, the RP-LC retention time turned out to be 580 s.
For the molecule `Cc1c(Cl)cccc1NC(=O)N1CCCC1c1nncn1-c1ccccc1` (centres undefined), the RP-LC retention time was found to be 738 s.
In turn, `Clc1ccc(C2Cn3nnc(-c4nc(-c5cccc(Cl)c5)no4)c3CO2)cc1` (centres undefined) came in with an RP-LC retention time of 1310 s.
As for `O=C(Nc1cc(F)ccc1F)C1CCCN(c2ncnc3c2nc2n3CCCCC2)C1` (centres undefined), the RP-LC retention time came out at 774 s.
Molecule `CC1(C(=O)NCc2ccc(F)cc2)CCCN(C(=O)Nc2cccc(Cl)c2)C1` (centres undefined) returned an RP-LC retention time of 967 s.
In the case of `CC(=O)N1CCc2c(c(CNC(=O)c3cncn3C)nn2C)C1` it was 558 s; in that of `Cc1ccc(-n2c(C)c(C)c3c(=O)n(CC(=O)N4CCc5ccccc54)cnc32)cc1`, 1040 s.
As for `Cn1cc(C2=CCN(C(=O)Nc3ccc(F)cc3F)CC2)c2cccnc21`, the RP-LC retention time stood at 792 s.
In the case of `O=C(Nc1ccccc1)N1CCC(n2c(-c3ccco3)nc3cccnc32)C1` (centres undefined) it was 716 s; in that of `Cc1c2cnn(-c3ccccc3)c(=O)c2c(C)n1CCCC(=O)NCC1CCCO1` (centres undefined), 687 s.
`Cc1nnc2c(=O)n(CC(=O)NCc3ccc(F)cc3F)c3cccnc3n12`: the RP-LC retention time is 680 s.
`O=C(Cn1cnc2c(sc3nc(-c4ccccc4)ccc32)c1=O)Nc1ccc2c(c1)OCO2`: the RP-LC retention time was determined as 974 s.
Take `Cc1csc(NC(=O)Cn2c(=O)n(C(C)C)c3ccc(-c4noc(C)n4)cc32)n1`: the RP-LC retention time was 780 s.
`COc1ccc(-n2c(=O)c(C(=O)Nc3ccccc3)c(O)c3cccnc32)cc1` gave an RP-LC retention time of 1200 s.
Molecule `O=S(=O)(c1cccc2cccnc12)N1CCCn2nc(-c3cccnc3)cc2C1` yielded an RP-LC retention time of 624 s.
For `CCOc1ccc(NC(=O)c2cccn2-c2cccnc2)cc1` the value was 733 s; for `COc1ccc(NC(=O)N2CCc3cn(C)c4cccc(c34)C2)cc1`, 844 s.
`COCC1CN(C2CCC2)CC12CCN(C(=O)c1sccc1C)CC2` (centres undefined) came in with an RP-LC retention time of 597 s.
`O=C(N[C@H]1CN2CCC1CC2)c1ccc(Cl)cc1` displayed an RP-LC retention time of 630 s.
For `CCOC(=O)CNC(=O)N1CCN(c2nc3ccccc3n3cccc23)CC1` the value was 556 s; for `O=C(C1CCCC1)N1CCN(Cc2nnnn2-c2ccccc2)CC1`, 712 s.
Turning to `CCn1nccc1C(=O)N1CCCC1c1ccccc1Cl` (centres undefined), the RP-LC retention time was determined as 849 s.
`CCc1cc(=O)n(CC(=O)NC(C)CCc2ccccc2)c(-c2ccccc2)n1` (centres undefined) had an RP-LC retention time of 1190 s.
For `Cn1cc(-c2nnc(SCC(=O)N3CCc4ccccc4C3)n2C)c(-c2ccccc2)n1` the value was 754 s; for `COC(=O)c1ccc(NC(=O)CSc2ccc(NC(=O)c3ccccc3F)nn2)cc1`, 805 s.
On to `CC(C)C(=O)Nc1cccc(N2CC(C(=O)Nc3ccc(C(C)C)cc3)CC2=O)c1` (centres undefined), for which the RP-LC retention time amounted to 886 s.
In the case of `Cc1nc(C)c(C(=O)N2CCC(Oc3ccc(-c4noc(-c5ccccc5)n4)cc3)C2)s1` (centres undefined) it was 1080 s; in that of `CC1CCN(C(=O)c2cn(-c3cc(N4CCOCC4)ncn3)cn2)CC1`, 729 s.
As to `COc1ccc(-c2csc(NC(=O)Cn3c(=O)oc4ccccc43)n2)cc1OC`, the RP-LC retention time is 828 s.
In turn, `CCc1ccc(CNC(=O)C2CCN(Cc3cn(C)c4ccc(OC)cc34)CC2)cc1` came in with an RP-LC retention time of 749 s.
As for `O=C(NCCCN1CCCC1=O)C(=O)NCCC1=CCCCC1`, the RP-LC retention time worked out at 686 s.
`COCc1nc(CCNC(=O)NCC(C)C)no1` showed an RP-LC retention time of 626 s.
Molecule `O=C(Cn1ccnc1)N1CCC(OCc2nc(C3CC3)no2)CC1` yielded an RP-LC retention time of 582 s.
In the case of `Cc1ccc(NC(=O)C2CCN(c3cncnc3N3CCOCC3)CC2)cc1C`, the RP-LC retention time was found to be 670 s.
`Cc1[nH]c(C(=O)N2CCC(CC(=O)N3CCOCC3)CC2)c(C)c1C(=O)OC(C)C` returned an RP-LC retention time of 702 s.
As to `CCn1cnc(S(=O)(=O)N2CCCC(C(=O)Nc3ccc(F)cc3)C2)c1` (centres undefined), the RP-LC retention time was determined as 726 s.
Regarding `CC(C)NC(=O)C1CCCN(C(=O)Nc2ccc(S(=O)(=O)N3CCCCCC3)s2)C1` (centres undefined), the RP-LC retention time came to 827 s.
Turning to `COc1ccc2c(c1)C1(CCN(S(=O)(=O)c3ccc(F)c(F)c3)C1)C(=O)N2` (centres undefined), the RP-LC retention time is 837 s.
`COc1ccc(CNC(=O)Cn2nc3c(N4CCCCCC4)nccn3c2=O)cc1` came in with an RP-LC retention time of 679 s.
In the case of `CC(C)NC(=O)c1nnc(-c2ccc(S(=O)(=O)N(C)C)cc2)o1`, the RP-LC retention time was found to be 737 s.
Consider `Cc1ccc2c(=O)c(C(=O)N3CCCCC3)cn(CC(=O)NC3CCCC3)c2n1`, for which the RP-LC retention time worked out at 694 s.
In the case of `COCCC1CCN(C(=O)CN(C)C(=O)c2ccc3cc[nH]c3c2)CC1` it was 686 s; in that of `COCCn1cc2c3c(cccc31)CN(C(=O)Nc1cccc(Cl)c1C)CC2`, 1070 s.
In turn, `CCCc1nnsc1C(=O)Nc1nnc(Cc2ccc(F)cc2)o1` registered an RP-LC retention time of 890 s.
For `CCCn1c(=O)c(C)nc2cc(-c3noc(COc4ccccc4)n3)ccc21`, the RP-LC retention time is 1070 s.
In the case of `CCN(CCN(C)C)c1ccc(C(=O)O)cc1NS(=O)(=O)c1ccc(Br)cc1` it was 648 s.
`Cc1ccccc1S(=O)(=O)N1CCC(Cc2nncn2-c2ccccc2)CC1` returned an RP-LC retention time of 827 s.
The molecule `Cc1ccsc1C(=O)NC1CCN(c2cc(-c3ccc(F)cc3)[nH]n2)C1` (centres undefined) displayed an RP-LC retention time of 670 s.
For `CCCN1C(=O)C(NC(=O)c2ccc(F)cc2)(C(F)(F)F)C2=C1CC(C)(C)CC2=O` (centres undefined), the RP-LC retention time turned out to be 952 s.
The molecule `O=C(CN1CCC2(CC1)N=C(c1ccc(Cl)cc1)C(=O)N2)Nc1ccc2c(c1)OCCO2` came in with an RP-LC retention time of 670 s.
For `CC(C)n1c(=O)sc2cc(S(=O)(=O)N3CCC(C(=O)N4CCc5ccccc5C4)CC3)ccc21` the value was 1000 s; for `Nc1c(-c2nnc(SCC(=O)N3CCOCC3)n2CC2CCCO2)sc2ncccc12` (centres undefined), 641 s; for `Cc1ccc(CNC(=O)c2cc3n(n2)CCCN(Cc2ccc(Cl)cc2)C3=O)o1`, 655 s.
As to `CC1CCN(C(=O)c2cc(S(=O)(=O)N(C)CC(=O)NC3CC3)cn2C)CC1`, the RP-LC retention time was 693 s.
In the case of `Cc1nc(N2CCCC2)c2c(C(=O)Nc3cccc(C)c3C)c(C)oc2n1`, the RP-LC retention time came out at 756 s.
For `CCC(=O)N1CCc2cc(N3CC(C(=O)N4CCCN(C)CC4)CC3=O)ccc21` (centres undefined) the value was 572 s; for `Cc1nc(OCC(=O)Nc2ccc(Br)cc2F)c2ccccc2n1`, 820 s; for `COc1ccc(-c2nc3ccc(C)cn3c2Nc2ccc(C)cc2)cc1`, 778 s.
For `Cn1cc(CN2CCC(C(=O)NCCC3=CCCCC3)CC2)c2cc(Cl)ccc21` the value was 778 s.
